Data on 13 compounds can be found in ChEMBL document CHEMBL1136494, “Potent anti-metastatic activity of dimeric sesquiterpene thioalkaloids from the rhizome of Nuphar pumilum” (2003).

What all share (assay type): functional
Holding throughout (conditions): Mus musculus

Experiment [1] relates to B16. As to the kind of experiment: Inhibition of invasion of B16 melanoma cells by 10 uM concentration of the compound.
In experiment [2] the test system is B16. As to the kind of experiment: Inhibition of invasion of B16 melanoma cells by 1 uM concentration of the compound.
Experiment [3] deals with B16. As to the kind of experiment: Inhibition of invasion of B16 melanoma cells by 100 uM concentration of the compound.
The test system of experiment [4] is B16. As to the kind of experiment: Inhibition of invasion of B16 melanoma cells by 0.1 uM concentration of the compound.
The test system of experiment [5] is B16. As to the kind of experiment: Inhibition of lung metastasis of B16 melanoma cells in mice after 20 mg/kg po administration of the compound.
The test system of experiment [6] is B16. The experiment can be described thus: Inhibition of invasion of B16 melanoma cells by 0.01 uM concentration of the compound.

With `C[C@H]1CC[C@H]2[C@H](C)CC[C@@H](c3ccoc3)[N@@+]2([O-])C1`, the inhibition at 10 µM in experiment [1] was 41.4%. For the same compound, the inhibition at 1 µM in experiment [2] was 34.7%. For the same compound, the inhibition at 100 µM in experiment [3] came out at 47.2%. In experiment [4], the inhibition at 0.1 µM amounted to 19.6%.
In experiment [5], `COc1cc(C=CC(=O)CC(=O)/C=C/c2ccc(O)c(OC)c2)ccc1O` [CURCUMIN] showed an inhibition in vivo at 20 mg/kg of 87%.
Consider `C[C@@H]1CC[C@@H](c2ccoc2)N2C[C@@]3(CC[C@@H]12)C[S+]([O-])[C@@]1(CC[C@H]2[C@H](C)CC[C@@H](c4ccoc4)N2C1)C3` (stereo partly drawn), for which, in experiment [1], the inhibition at 10 µM stood at 42.2%. Besides, in experiment [2], the inhibition at 1 µM stood at 38.3%. Also, the inhibition at 100 µM in experiment [3] was found to be 32.5%. Also, the inhibition at 0.1 µM in experiment [4] turned out to be 16.9%.
The matching figures for `C[C@@H]1CC[C@@H](c2ccoc2)N2C[C@@]3(CC[C@@H]12)CS[C@@]1(CC[C@H]2[C@H](C)CC[C@@H](c4ccoc4)N2C1)C3` [THIOBINUPHARIDINE]: 15.6%, 9.7%, 22.7% and 5.2%.
The like results for `C[C@@H]1CC[C@@H](c2ccoc2)N2C[C@]3(CC[C@@H]12)C[S+]([O-])[C@]1(CC[C@H]2[C@H](C)CC[C@@H](c4ccoc4)N2C1)C3` (stereo partly drawn) were, in that order, 12.8%, 18.5%, 15.7% and 10.6%.
The matching figures for `C[C@H]1CC[C@H]2[C@H](C)CC[C@@H](c3ccoc3)N2C1`: 28.5%, 14%, 19.1% and -5.1%.
In the case of `C[C@@H]1CC[C@@H](c2ccoc2)N2C[C@@]3(CC[C@@H]12)C[S+]([O-])[C@]1(CC[C@H]2[C@H](C)CC[C@@H](c4ccoc4)N2C1)C3` (stereo partly drawn), the inhibition at 10 µM in experiment [1] is 9.2%. The inhibition at 1 µM in experiment [2] came to 10.2%. The inhibition at 100 µM in experiment [3] came to 0%. The inhibition at 0.1 µM in experiment [4] is -8.1%.
In the case of `C[C@@H]1CC[C@@H](c2ccoc2)N2C[C@@]3(CC[C@@H]12)CS[C@@]1(CC[C@H]2[C@H](C)CC[C@@H](c4ccoc4)N2[C@@H]1O)C3`, the inhibition at 10 µM in experiment [1] was determined as 84.8%. Also, the inhibition at 0.01 µM in experiment [6] was determined as 50.9%. The inhibition at 1 µM in experiment [2] was 66.5%. In experiment [3], the inhibition at 100 µM is 86.8%. Further, the inhibition in vivo at 20 mg/kg in experiment [5] is 94%. Further, in experiment [4], the inhibition at 0.1 µM amounted to 57.5%.
`C[C@@H]1CC[C@@H](c2ccoc2)N2C[C@@]3(CC[C@@H]12)CS[C@]1(CC[C@H]2[C@H](C)CC[C@@H](c4ccoc4)N2[C@@H]1O)C3` [6-HYDROXYTHIONUPHLUTINE B]: the inhibition at 10 µM in experiment [1] was 61.4%. Moreover, the inhibition at 0.01 µM in experiment [6] is 5.9%. In addition, the inhibition at 1 µM in experiment [2] worked out at 62.7%. The inhibition at 100 µM in experiment [3] is 47.1%. The inhibition at 0.1 µM in experiment [4] is 31.6%.
Turning to `C[C@@H]1CC[C@@H](c2ccoc2)N2C[C@]3(CC[C@@H]12)CS[C@]1(CC[C@H]2[C@H](C)CC[C@@H](c4ccoc4)N2C1)C3` [NEOTHIOBINUPHARIDINE], the inhibition at 10 µM in experiment [1] is 33.2%. The inhibition at 1 µM in experiment [2] was 18.9%. Moreover, the inhibition at 100 µM in experiment [3] was found to be 28.3%. In experiment [4], the inhibition at 0.1 µM came out at 11.9%.
On to `C[C@@H]1CC[C@@H](c2ccoc2)N2C[C@](C)(O)CC[C@@H]12` [NUPHAROLUTINE], for which the inhibition at 10 µM in experiment [1] turned out to be 16.8%. Moreover, the inhibition at 1 µM in experiment [2] came to 1.7%. In experiment [3], the inhibition at 100 µM was -0.6%. Besides, in experiment [4], the inhibition at 0.1 µM is 25.5%.
Regarding `C[C@@H]1CC[C@H]2[C@H](C)CC[C@@H](c3ccoc3)N2C1` [(-)-7-EPI-DEOXYNUPHARIDINE], the inhibition at 10 µM in experiment [1] was 20.9%. In addition, the inhibition at 1 µM in experiment [2] worked out at 25.3%. In experiment [3], the inhibition at 100 µM was 23%. For the same compound, the inhibition at 0.1 µM in experiment [4] was 5.1%.
As for `C[C@@H]1CC[C@@H](c2ccoc2)N2[C@H]1CC[C@@]1(CS[C@@]3(CC[C@H]4[C@H](C)CC[C@@H](c5ccoc5)N4[C@@H]3O)C1)[C@H]2O`, the inhibition at 10 µM in experiment [1] stood at 83.2%. Further, in experiment [6], the inhibition at 0.01 µM is 40.3%. Also, in experiment [2], the inhibition at 1 µM was found to be 68.5%. Further, the inhibition at 100 µM in experiment [3] stood at 86.6%. The inhibition at 0.1 µM in experiment [4] stood at 43.1%.

By inhibition is commonly meant the relative decrease from the control value, in per cent. For orientation: inhibition in vivo means the percentage by which the read-out fell short of the control. A higher inhibition in vivo goes with a response far below the control.
